According to ChEMBL document CHEMBL2074032, “Involvement of MDR1 P-glycoprotein in multifactorial resistance to methotrexate” (Int J Cancer, 1996):

Target: ATP-dependent translocase ABCB1 (Homo sapiens, UniProt P08183)
Test: TP_TRANSPORTER: intracellular accumulation in CEM/MTX R cells
Type: functional, cell-based

Chain of ATP-dependent translocase ABCB1 (P08183 whole entry): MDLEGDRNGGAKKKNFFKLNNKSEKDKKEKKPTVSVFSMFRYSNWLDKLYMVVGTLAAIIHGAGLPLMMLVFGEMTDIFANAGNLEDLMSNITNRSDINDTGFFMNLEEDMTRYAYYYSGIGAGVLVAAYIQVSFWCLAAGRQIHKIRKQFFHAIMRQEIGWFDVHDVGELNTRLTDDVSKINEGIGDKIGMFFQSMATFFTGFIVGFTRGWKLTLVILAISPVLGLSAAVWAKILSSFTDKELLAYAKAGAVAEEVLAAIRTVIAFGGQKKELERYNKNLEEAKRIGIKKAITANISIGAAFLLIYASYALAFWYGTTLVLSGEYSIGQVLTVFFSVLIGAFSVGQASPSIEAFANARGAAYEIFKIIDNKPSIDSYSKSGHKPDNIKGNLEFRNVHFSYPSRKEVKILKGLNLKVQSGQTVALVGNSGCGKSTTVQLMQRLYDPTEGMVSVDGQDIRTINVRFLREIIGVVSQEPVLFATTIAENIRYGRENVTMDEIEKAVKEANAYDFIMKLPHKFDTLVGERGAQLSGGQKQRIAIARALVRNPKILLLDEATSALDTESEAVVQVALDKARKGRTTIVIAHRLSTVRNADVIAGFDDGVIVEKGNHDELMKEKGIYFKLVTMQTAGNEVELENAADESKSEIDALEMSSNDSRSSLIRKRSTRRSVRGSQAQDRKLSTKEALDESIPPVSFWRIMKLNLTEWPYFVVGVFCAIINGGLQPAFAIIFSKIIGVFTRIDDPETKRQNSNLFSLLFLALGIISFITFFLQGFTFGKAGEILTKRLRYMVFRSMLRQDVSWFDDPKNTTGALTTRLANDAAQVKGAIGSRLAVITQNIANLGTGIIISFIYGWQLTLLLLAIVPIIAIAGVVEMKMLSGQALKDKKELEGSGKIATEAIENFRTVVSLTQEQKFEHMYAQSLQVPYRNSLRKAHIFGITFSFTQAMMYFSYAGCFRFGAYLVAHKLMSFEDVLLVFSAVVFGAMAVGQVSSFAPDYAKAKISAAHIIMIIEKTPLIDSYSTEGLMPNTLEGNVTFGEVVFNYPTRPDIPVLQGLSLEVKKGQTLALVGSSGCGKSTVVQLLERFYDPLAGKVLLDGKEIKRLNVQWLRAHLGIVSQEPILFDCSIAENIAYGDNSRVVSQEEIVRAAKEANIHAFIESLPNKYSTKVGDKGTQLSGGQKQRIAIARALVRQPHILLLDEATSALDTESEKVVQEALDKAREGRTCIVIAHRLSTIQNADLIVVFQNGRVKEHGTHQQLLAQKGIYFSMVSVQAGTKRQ

- Activity: substrate [+]
Structure (SMILES): CN(Cc1cnc2nc(N)nc(N)c2n1)c1ccc(C(=O)N[C@@H](CCC(=O)O)C(=O)O)cc1 [METHOTREXATE]
